Laboratory results taken from ChEMBL document CHEMBL1201862, “PubChem BioAssay data set” (2004).
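How tested: cells in 96-well plates exposed to compound for 48 hours at five concentrations. The concentration for 50% growth inhibition is given as GI50.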 Active and inactive are the calls of the source. Rule as the data show it: active = GI50 up to about 1.1 µM and inactive = higher.

Key:
Experiment in all cases: DTP human tumour cell line panel, 48 h
786-0 = tested on: 786-0
CAKI-1 = tested on: CAKI-1
COLO 205 = tested on: COLO 205
HCT-116 = tested on: HCT-116
HOP-62 = tested on: HOP-62
IGROV-1 = tested on: IGROV-1
MCF7 = tested on: MCF7
MOLT-4 = tested on: MOLT-4
NCI-H226 = tested on: NCI-H226
NCI-H460 = tested on: NCI-H460
NCI/ADR-RES = tested on: NCI/ADR-RES
OVCAR-4 = tested on: OVCAR-4
OVCAR-8 = tested on: OVCAR-8
SF-268 = tested on: SF-268
SNB-19 = tested on: SNB-19
SR = tested on: SR
SW-620 = tested on: SW-620
U-251 = tested on: U-251
UACC-257 = tested on: UACC-257
BT-549 = tested on: BT-549

SMILES | GI50 (786-0) | GI50 (CAKI-1) | GI50 (COLO 205) | GI50 (HCT-116) | GI50 (HOP-62) | GI50 (IGROV-1) | GI50 (MCF7) | GI50 (MOLT-4) | GI50 (NCI-H226) | GI50 (NCI-H460) | GI50 (NCI/ADR-RES) | GI50 (OVCAR-4) | GI50 (OVCAR-8) | GI50 (SF-268) | GI50 (SNB-19) | GI50 (SR) | GI50 (SW-620) | GI50 (U-251) | GI50 (UACC-257) | GI50 (BT-549)
CCC(C)C(=O)O[C@H]1C(=O)O[C@@H]2C[C@H]3C(C)=CC(=O)[C@@H](O)[C@]3(C)[C@H]3[C@@H](O)[C@H](O)[C@@]4(C)OC[C@]32[C@@H]14 (stereo not given in full) | < 0.0194 µM (active) | < 0.0455 µM (active) | 0.0229 µM (active) | < 0.01 µM (active) | < 0.0221 µM (active) | < 0.0191 µM (active) | < 0.01 µM (active) | 0.0112 µM (active) | < 0.0157 µM (active) | < 0.0135 µM (active) | < 0.0334 µM (active) | < 0.01 µM (active) | < 0.0155 µM (active) | < 0.0164 µM (active) | < 0.0143 µM (active) | 0.01 µM (active) | < 0.0162 µM (active) | < 0.0171 µM (active) | < 0.01 µM (active) | –
CN(CC(=O)O)c1ncc2c(n1)C=CCC2 | > 100 µM (inactive) | > 100 µM (inactive) | > 100 µM (inactive) | > 100 µM (inactive) | > 100 µM (inactive) | > 100 µM (inactive) | > 100 µM (inactive) | > 100 µM (inactive) | > 100 µM (inactive) | > 100 µM (inactive) | > 100 µM (inactive) | > 100 µM (inactive) | > 100 µM (inactive) | > 100 µM (inactive) | > 100 µM (inactive) | > 100 µM (inactive) | > 100 µM (inactive) | > 100 µM (inactive) | > 100 µM (inactive) | –
CC(C)(C)OC(=O)N1CC(O)O[C@H](c2ccccc2)[C@@H]1c1ccccc1 (stereo not given in full) | 27.9 µM (inactive) | 44.9 µM (inactive) | 31 µM (inactive) | 44.6 µM (inactive) | 16.3 µM (inactive) | 18.9 µM (inactive) | – | 30.4 µM (inactive) | 20.6 µM (inactive) | – | 26.4 µM (inactive) | 18.5 µM (inactive) | 29.7 µM (inactive) | 25.5 µM (inactive) | 15.7 µM (inactive) | 16.7 µM (inactive) | 16.6 µM (inactive) | 14.4 µM (inactive) | 17.7 µM (inactive) | 17.8 µM (inactive)
CCCCCCCCCCCCCCCCNc1nc(=O)n(C2CC(O)C(COP(=O)(O)OC3CC(n4cc(F)c(=O)[nH]c4=O)OC3CO)O2)cc1F (stereo not given) | 0.416 µM (active) | 0.258 µM (active) | 10.9 µM (inactive) | 0.504 µM (active) | < 0.0296 µM (active) | 1.95 µM (inactive) | < 0.01 µM (active) | 1.95 µM (inactive) | 9.51 µM (inactive) | – | 0.634 µM (active) | 92.3 µM (inactive) | 0.296 µM (active) | < 0.0218 µM (active) | 0.27 µM (active) | < 0.0243 µM (active) | 32.1 µM (inactive) | 1.66 µM (inactive) | 12.8 µM (inactive) | –
CC(C)(C)OC(=O)N1N=CCC1c1ccccc1 (stereo not given) | > 100 µM (inactive) | > 100 µM (inactive) | > 100 µM (inactive) | > 100 µM (inactive) | > 100 µM (inactive) | > 100 µM (inactive) | > 100 µM (inactive) | – | > 100 µM (inactive) | > 100 µM (inactive) | > 100 µM (inactive) | – | > 100 µM (inactive) | > 100 µM (inactive) | – | > 100 µM (inactive) | > 100 µM (inactive) | – | > 100 µM (inactive) | –
C=CCCC(=O)N1CCC(C(=O)OCC)C1=O (stereo not given) | > 100 µM (inactive) | > 100 µM (inactive) | > 100 µM (inactive) | > 100 µM (inactive) | > 100 µM (inactive) | > 100 µM (inactive) | – | > 100 µM (inactive) | 90.8 µM (inactive) | – | > 100 µM (inactive) | > 100 µM (inactive) | > 100 µM (inactive) | > 100 µM (inactive) | > 100 µM (inactive) | – | > 100 µM (inactive) | > 100 µM (inactive) | > 100 µM (inactive) | > 100 µM (inactive)
C/C(=N\OCC(O)CNCCSCc1ccccc1)c1ccccc1Cl (stereo not given) | 21.4 µM (inactive) | 17.7 µM (inactive) | 19.2 µM (inactive) | 21.6 µM (inactive) | 19.4 µM (inactive) | – | 19.8 µM (inactive) | 47.5 µM (inactive) | 17.6 µM (inactive) | 21.6 µM (inactive) | 19.1 µM (inactive) | – | 14.6 µM (inactive) | 17.3 µM (inactive) | 18.5 µM (inactive) | 31.7 µM (inactive) | 20 µM (inactive) | – | 18.5 µM (inactive) | –
O=c1oc2ccccc2c2c(=O)c3ccc(OC/C(=N/O)c4ccc(Cl)cc4)cc3oc12 | 11.4 µM (inactive) | 10.6 µM (inactive) | 15 µM (inactive) | 11.2 µM (inactive) | 15.1 µM (inactive) | 31.5 µM (inactive) | 5.83 µM (inactive) | 5.06 µM (inactive) | 17.4 µM (inactive) | 11.9 µM (inactive) | 7.35 µM (inactive) | – | 24 µM (inactive) | 14.2 µM (inactive) | 14.9 µM (inactive) | 2.88 µM (inactive) | 12.8 µM (inactive) | 9.51 µM (inactive) | 33.9 µM (inactive) | –
CCn1c(=N)sc2nc3ccccc3n2c1=O | > 100 µM (inactive) | > 100 µM (inactive) | > 100 µM (inactive) | > 100 µM (inactive) | > 100 µM (inactive) | > 100 µM (inactive) | 9.48 µM (inactive) | > 100 µM (inactive) | > 100 µM (inactive) | > 100 µM (inactive) | > 100 µM (inactive) | > 100 µM (inactive) | > 100 µM (inactive) | > 100 µM (inactive) | > 100 µM (inactive) | > 100 µM (inactive) | > 100 µM (inactive) | > 100 µM (inactive) | > 100 µM (inactive) | –
O=C(NCCOC(=O)OCCNC(=O)NC1CCCCC1)NC1CCCCC1 | > 100 µM (inactive) | > 100 µM (inactive) | > 100 µM (inactive) | > 100 µM (inactive) | 35.6 µM (inactive) | > 100 µM (inactive) | 0.834 µM (active) | > 100 µM (inactive) | > 100 µM (inactive) | > 100 µM (inactive) | > 100 µM (inactive) | 91.6 µM (inactive) | > 100 µM (inactive) | > 100 µM (inactive) | > 100 µM (inactive) | > 100 µM (inactive) | > 100 µM (inactive) | > 100 µM (inactive) | > 100 µM (inactive) | –
COc1ccc2nc(NC(=O)C(=O)CC(=O)c3ccc(Cl)cc3)sc2c1 | > 100 µM (inactive) | 58.5 µM (inactive) | > 100 µM (inactive) | > 100 µM (inactive) | > 100 µM (inactive) | 73.1 µM (inactive) | – | > 100 µM (inactive) | 96.2 µM (inactive) | > 100 µM (inactive) | – | 20.9 µM (inactive) | > 100 µM (inactive) | 85.3 µM (inactive) | 95.5 µM (inactive) | > 100 µM (inactive) | > 100 µM (inactive) | 48.4 µM (inactive) | > 100 µM (inactive) | –
C=C(C)CC1=C(C(=S)NCCO[Si](C)(C)C(C)(C)C)C(OCC)(OCC)C1=O | 16.6 µM (inactive) | 16.3 µM (inactive) | 22.3 µM (inactive) | 18.2 µM (inactive) | 17.9 µM (inactive) | 15.9 µM (inactive) | 9.66 µM (inactive) | > 100 µM (inactive) | > 10 µM (inactive) | – | 36.1 µM (inactive) | 12.9 µM (inactive) | 40.6 µM (inactive) | 19.1 µM (inactive) | 17.7 µM (inactive) | – | 18.4 µM (inactive) | 19.9 µM (inactive) | 16.9 µM (inactive) | –
Nc1ncnc2c1nc(Cl)n2C1OC2COP(=O)(O)OC2C1O (stereo not given) | 5.04 µM (inactive) | 6.04 µM (inactive) | 5.55 µM (inactive) | 3.09 µM (inactive) | – | 11 µM (inactive) | 3.49 µM (inactive) | 2.81 µM (inactive) | 3.41 µM (inactive) | 4 µM (inactive) | 8.39 µM (inactive) | 24.2 µM (inactive) | 3.9 µM (inactive) | > 51.8 µM (inactive) | > 100 µM (inactive) | 3.55 µM (inactive) | 3.47 µM (inactive) | 50.6 µM (inactive) | 18.9 µM (inactive) | –
O=[N+]([O-])c1cc(-c2nnc(C34CC5CC(CC(C5)C3)C4)o2)cc([N+](=O)[O-])c1 | 34.2 µM (inactive) | > 100 µM (inactive) | 17.9 µM (inactive) | 12.3 µM (inactive) | 59.4 µM (inactive) | > 100 µM (inactive) | – | > 100 µM (inactive) | 83.4 µM (inactive) | 32.4 µM (inactive) | > 100 µM (inactive) | > 100 µM (inactive) | 25.5 µM (inactive) | 86.1 µM (inactive) | > 100 µM (inactive) | > 100 µM (inactive) | 15.4 µM (inactive) | 45.5 µM (inactive) | 83.4 µM (inactive) | –
COc1ccc(NC(=O)c2cc(OC)cc(OC)c2)cc1 | > 85.7 µM (inactive) | 21.9 µM (inactive) | 7.1 µM (inactive) | 8.41 µM (inactive) | > 36.5 µM (inactive) | 28 µM (inactive) | – | 14.8 µM (inactive) | 31.7 µM (inactive) | 9.89 µM (inactive) | – | > 100 µM (inactive) | 80.5 µM (inactive) | 36.7 µM (inactive) | > 60.8 µM (inactive) | 11.6 µM (inactive) | 7.01 µM (inactive) | 17.5 µM (inactive) | 98.4 µM (inactive) | –
